Measurements from article PMC12598616, “Design and optimization of caspase-1-responsive fluorescent probes for pyroptosis imaging and anti-pyroptosis drug screening” (Chemical Science, 2025).

Key:
[1] = test system: activated Cas-1 in primary peritoneal macrophages; test: High-content screening / fluorescence imaging for caspase-1 modulators in primary peritoneal macrophages; type: cell-based, mouse; conditions: natural product 10 μM with Nig 10 μM 2 h after LPS 4 h; FPy1 5 μM
Description: The efficient and rapid discovery of Cas-1 modulators is of significant importance considering the therapeutic potential of Cas-1 in various diseases.[39,40] Therefore, we employed FPy1 to construct a high-content screening system aimed at identifying Cas-1 modulators. The level of activated Cas-1 in cells is influenced by multiple factors. To reduce the impact of factors that affect Cas-1 activation in cells, we utilized the NLRP3 inflammasome-mediated Cas-1 activation model, administering the drug during the second stage where the zymogen was converted into activated Cas-1. MCC950, a selective NLRP3 inflammasome inhibitor that could suppress Cas-1 activation, was selected as the positive drug.[41] […] To validate the efficacy of the Cas-1 modulator screening system (Fig. 6a), we first observed the fluorescence images of PMs stained with FPy1 (5 μM) in the control group, model group, and positive drug group. […] Subsequently, the impact of 25 natural products (10 μM) on activated Cas-1 were studied using high-content analysis (Fig. S20). […] To determine whether deoxyshikonin directly binds to Cas-1 and inhibits its activity, we conducted fluorescence detection following co-incubation of deoxyshikonin, FPy1 and Cas-1. […]
Harvested rat discs were fixed in 4 % buffered paraformaldehyde for 24 hours, decalcified in 10 % ethylenediaminetetraacetic acid (EDTA, Solarbio, E8030) solution for 1 month, embedded in paraffin, and sectioned at a thickness of 5 μm. […] Stained sections were evaluated by three independent raters, blinded to the research protocol, and measurements were averaged for statistical analysis. […]
In vivo fluorescence imaging of intervertebral disc degeneration
Twelve rats were modeled with needle puncture-induced intervertebral disc degeneration at the Co5/6, Co6/7 and Co 7/8 levels. […] In vivo fluorescence images were acquired using an in vivo Imaging System (PerkinElmer). […]
In vivo fluorescence imaging of osteoarthritis […]

Cas-1 = test: Fluorescence detection after co-incubation of deoxyshikonin, FPy1 and Cas-1; type: biochemical, human
Description: The efficient and rapid discovery of Cas-1 modulators is of significant importance considering the therapeutic potential of Cas-1 in various diseases.[39,40] Therefore, we employed FPy1 to construct a high-content screening system aimed at identifying Cas-1 modulators. The level of activated Cas-1 in cells is influenced by multiple factors. To reduce the impact of factors that affect Cas-1 activation in cells, we utilized the NLRP3 inflammasome-mediated Cas-1 activation model, administering the drug during the second stage where the zymogen was converted into activated Cas-1. MCC950, a selective NLRP3 inflammasome inhibitor that could suppress Cas-1 activation, was selected as the positive drug.[41] […] To validate the efficacy of the Cas-1 modulator screening system (Fig. 6a), we first observed the fluorescence images of PMs stained with FPy1 (5 μM) in the control group, model group, and positive drug group. […] Subsequently, the impact of 25 natural products (10 μM) on activated Cas-1 were studied using high-content analysis (Fig. S20). […] To determine whether deoxyshikonin directly binds to Cas-1 and inhibits its activity, we conducted fluorescence detection following co-incubation of deoxyshikonin, FPy1 and Cas-1. […] Overall, FPy1 could serve as an effective tool for the rapid identification of lead compounds that modulate Cas-1 activity within a high-content analysis platform. […]

cleaved Cas-1 = test: Western blot of cleaved Cas-1; type: cell-based; conditions: control and treated groups

With `CC(C)=CCCC1=CC(=O)c2c(O)ccc(O)c2C1=O` [deoxyshikonin] the “fluorescence intensity of FPy1 relative to model group, high-content analysis” value [1] was “significant reduction in fluorescence intensity compared to the model group”, the “fluorescence at 585 nm in presence of compound (direct Cas-1 inhibition)” value (Cas-1) was “the fluorescence at 585 nm was lower in the presence of deoxyshikonin” and the “activated Cas-1 level (Western blot)” value (cleaved Cas-1) was “significantly inhibit the activation of Cas-1, reducing activated Cas-1 levels”.
